Test results from paper PMC2045123 (Analytical and Bioanalytical Chemistry, 2007).
“Also recorded” adds a separate entry of the source. Like-named read-outs stand apart in the source and are kept apart here.

Assays:
AR = conditions: cited from earlier work
hAR = biological target: T1, hAR (Homo sapiens, UniProt P10275); experiment: lacZ-based; assay type: cell-based
T1 sequence (P10275 1-920): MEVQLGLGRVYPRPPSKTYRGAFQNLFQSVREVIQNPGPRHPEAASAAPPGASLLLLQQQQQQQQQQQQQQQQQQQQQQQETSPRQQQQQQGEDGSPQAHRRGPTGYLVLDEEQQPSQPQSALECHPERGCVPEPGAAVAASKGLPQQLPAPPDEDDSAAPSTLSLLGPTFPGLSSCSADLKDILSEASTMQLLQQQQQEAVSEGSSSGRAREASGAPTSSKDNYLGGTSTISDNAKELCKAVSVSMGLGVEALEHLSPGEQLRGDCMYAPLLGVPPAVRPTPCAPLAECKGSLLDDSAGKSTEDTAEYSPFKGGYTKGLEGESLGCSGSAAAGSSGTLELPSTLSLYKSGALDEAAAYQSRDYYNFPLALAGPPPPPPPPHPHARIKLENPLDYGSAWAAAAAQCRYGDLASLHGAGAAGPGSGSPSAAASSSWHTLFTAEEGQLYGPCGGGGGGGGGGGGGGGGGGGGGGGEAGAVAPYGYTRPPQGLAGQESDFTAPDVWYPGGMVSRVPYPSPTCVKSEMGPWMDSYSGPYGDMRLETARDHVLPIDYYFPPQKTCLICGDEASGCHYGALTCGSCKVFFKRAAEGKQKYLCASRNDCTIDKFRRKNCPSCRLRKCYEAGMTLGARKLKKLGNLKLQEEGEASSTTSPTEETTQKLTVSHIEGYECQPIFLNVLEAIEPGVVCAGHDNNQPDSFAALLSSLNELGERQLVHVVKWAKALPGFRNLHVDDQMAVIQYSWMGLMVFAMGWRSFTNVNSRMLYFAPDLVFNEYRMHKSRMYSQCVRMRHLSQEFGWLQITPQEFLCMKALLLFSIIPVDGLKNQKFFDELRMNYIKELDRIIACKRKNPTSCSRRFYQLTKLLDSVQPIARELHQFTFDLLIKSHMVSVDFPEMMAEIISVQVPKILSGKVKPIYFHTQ

human androgen receptor [1] = biological target: T2, human androgen receptor (Homo sapiens, UniProt P10275); experiment: new yeast androgen bioassay expressing yEGFP in response to androgens; assay type: cell-based
T2 sequence (P10275 1-920): T1 sequence (P10275 1-920)

human androgen receptor [2] = biological target: T2, human androgen receptor; assay type: cell-based; conditions: coexposure with 50 nM 5α-dihydrotestosterone; potency compared with flutamide
[3] = β-galactosidase bioassay, relative to 17β-testosterone, NR no response

Row | Structure (SMILES) | androgenic activity in MCRG systems (positive systems out of all) (AR) | RAP (hAR; [3]) | further results
1 | CC(=O)[C@H]1CC[C@H]2[C@@H]3CCC4=CC(=O)CC[C@]4(C)[C@H]3CC[C@]12C [Progesterone] | seven out of nine |  | 
2 | C[C@]1(O)CC[C@H]2[C@@H]3CCC4=CC(=O)CCC4=C3C=C[C@@]21C [Methyltrienolone] |  |  | RAP (hAR): 3.1
3 | C[C@@H]1C[C@H]2[C@@H]3CCC4=CC(=O)C=C[C@]4(C)[C@@]3(F)[C@@H](O)C[C@]2(C)[C@@]1(O)C(=O)CO [Dexamethasone] | three out of four |  | 
4 | CC[C@]1(O)CC[C@H]2[C@@H]3CCC4=CC(=O)CCC4=C3C=C[C@@]21CC [Tetrahydrogestrinone] |  | 1.0 | 
5 | C[C@]12CC[C@H]3[C@@H](CCC4=CC(=O)C=C[C@@]43C)[C@@H]1CC[C@@H]2O [17β-Boldenone] |  | 0.2 | 
6 | C[C@]12CC[C@@H]3c4ccc(O)cc4CC[C@H]3[C@@H]1CCC2=O [Estrone] |  |  | agonistic response (in words) (human androgen receptor [1]): no agonistic response; also recorded: negative result
7 | C[C@]12CC[C@@H]3c4ccc(O)cc4CC[C@H]3[C@@H]1CC[C@@H]2O [17β-Estradiol] | ten out of 11 |  | 
8 | C[C@]12C=CC3=C4CCC(=O)C=C4CC[C@H]3[C@@H]1CC[C@@H]2O [17β-Trenbolone] |  | 0.9 | EC50 (hAR): 13 nM
9 | Brc1ccc(Oc2cc(Br)cc(Br)c2)cc1 [BDE-39] |  |  | agonistic response (in words) (human androgen receptor [1]): None of these four compounds were able to show an agonistic response; antiandrogenic activity (in words) (human androgen receptor [2]): clearly less antiandrogenic
